Test results taken from patent publication USRE35593E (priority 1989, dated 1997).
Structures can show the parent of a compound that is named as a salt. Where two headings read alike, the source gives them in different places.

How the values were obtained:
muscarinic receptors [1] = experiment: Radio ligand binding: displacement of muscarinic agonist 3H-OXO-M (3H-Oxotremorine-M), rat cerebral cortex membranes; set-up: species or system Hooded Lister rats; conditions: 2 nM 3H-OXO-M, 2 mM magnesium chloride, 37° C., 30 min, pH 7.7, non-specific: 10 μM Oxotremorine
muscarinic receptors [2] = format: binding, Hooded Lister rats; conditions: 0.27 nM 3H-QNB; rat cerebral cortex; 37° C., 30 min; pH 7.7; non-specific: 1 μM Atropine sulphate

SMILES | IC50 (muscarinic receptors [1]) | IC50 (muscarinic receptors [2])
CON=C(Cl)C1CN2CCC1CC2 (racemic) [Example E1, (±) 1-Azabicyclo[2.2.2]oct-3-yl-N-methoxycarboximidoyl chloride oxalate salt] | 93 nM | 897 nM
CON=C(OC)C1CN2CCC1CC2 (racemic) [Example E2, (±) 1-Azabicyclo2.2.2]oct-3-yl-N-methoxycarboximidic acid methyl ester oxidate salt] | 1000 nM | 8000 nM
C#CC(=NOC)C12CCCN(CC1)C2 (racemic) [Example E4, (±) 1-Azabicyclo[3.2.1]oct-5-yl ethynyl ketone O-methyloxime oxalate salt] | 162 nM | 1460 nM
CON=C(Cl)C12CCCN(CC1)C2 (racemic) [Example E5, (±) 1-Azabicyclo[3.2.1]oct-5-yl-N-methoxycarboximidoyl chloride oxalate salt] | 72 nM | 3820 nM
CON=C(C#N)C12CCCN(CC1)C2 (racemic) [Example E6, (±) α-(Methoxyimino)-α-(1-azabicyclo[3.2.1]oct-5-yl) acetonitrile hydrochloride salt] | 114 nM | 251 nM
CON=C(Br)C12CCCN(CC1)C2 (racemic) [Example E7, (±) 1-Azabicyclo[3.2. ]oct-5-yl-N-methoxycarboximidonyl bromide oxalate salt] | 190 nM | 2850 nM
CON=C(F)C1CN2CCC1CC2 (racemic) [Example E10, (±) 1-Azabicyclo[2.2.2]oct-3-yl-N-methoxycarboximidoyl fluoride oxalate salt] | 34 nM | 2110 nM
CON=C(C1CC1)C1CN2CCC1CC2 (racemic) [Example E15, (±) 1-Azabicyclo[2.2.2]oct-3-yl cyclopropyl ketone trans-O-methyloxime hydrochloride salt] | 386 nM | 22200 nM
CON=C(Cl)[C@H]1CN2CC[C@H]1C2 (relative stereo) [Example E8, (±) exo-1-Azabicyclo[2.2.1]hept-3-yl-N-methoxycarboximidoyl chloride oxalate salt] | 64 nM | 3330 nM
CON=C(C#N)[C@H]1CN2CC[C@H]1C2 (relative stereo) [Example E9, (±) exo-α-(Methoxyimino)-α-(1-azabicyclo[2.2.1]hept-3-yl)acetonitrile hydrochloride salt] | 25 nM | 2100 nM
CON=C(Cl)[C@@H]1CN2CC[C@H]1C2 (relative stereo) [Example E16, (±) endo-1-Azabicyclo[2.2.1]hept-3-yl -N-methoxycarboximidoyl chloride oxalate salt] | 99 nM | 7000 nM
CON=C(C#N)[C@@H]1CN2CC[C@H]1C2 (relative stereo) [Example E17, (±) endo-α-(Methoxyimino)-α-(1-azabicyclo[2.2.1]hept-3-yl)acetonitrile oxalate salt] | 16 nM | 3600 nM
CON=C(Br)[C@H]1CN2CC[C@H]1C2 (relative stereo) [Example E18, (±) exo- and endo-1-Azabicyclo[2.2.1]hept-3-yl-N-methoxycarboximidoyl bromide oxalate salts] | 46 nM | 11000 nM
CON=C(Br)[C@@H]1CN2CC[C@H]1C2 (relative stereo) [Example E19, (±) exo- and endo-1-Azabicyclo[2.2.1]hept-3-yl-N-methoxycarboximidoyl bromide oxalate salts] | 127 nM | 3600 nM
CON=C(F)[C@H]1CN2CC[C@H]1C2 (relative stereo) [Example E20, (±) exo-1-Azabicyclo[2.2.1]hept-3-yl-N-methoxy carboximidoyl fluoride oxalate salt] | 11 nM | 3000 nM
CCON=C(Cl)[C@H]1CN2CC[C@H]1C2 (relative stereo) [Example E21, (±) exo-1-Azabicyclo[2.2.1]hept-3-yl-N-ethoxy carboximidoyl chloride oxalate salt] | 570 nM | 15500 nM
CCON=C(C#N)[C@H]1CN2CC[C@H]1C2 (relative stereo) [Example E22, (±) exo-α-(Ethoxyimino)-α-(1-azabicyclo[2.2. 1]hept-3-yl)acetonitrile oxalate salt] | 233 nM | 10000 nM
C#CCON=C(Cl)[C@H]1CN2CC[C@H]1C2 (relative stereo) [Example E24, (±) exo- and endo-1-Azabicyclo[2.2.1]hept-3-yl-N-prop-2-ynyloxycarboximidoyl chloride oxalate salts] | 112 nM | 2100 nM
CON=C(CC#N)[C@H]1CN2CC[C@H]1C2 (relative stereo) [Example E27, (±) exo- and endo-3-Oxo-3-(1-azabicyclo[2.2.1]hept-3-yl)propionitrile-O-methyl oxime oxalate salts] | 71 nM | 1100 nM
CON=C(CC#N)[C@@H]1CN2CC[C@H]1C2 (relative stereo) [Example E28, (±) exo- and endo-3-Oxo-3-(1-azabicyclo[2.2.1]hept-3-yl)propionitrile-O-methyl oxime oxalate salts] | 750 nM | 16500 nM
CON=C(Cl)C12CCN(CC1)C2 [Example E11, 1-Azabicyclo[2.2.1]hept-4-yl-N-methoxycarboximidoyl chloride oxalate salt] | 38 nM | 9000 nM
CON=C(C#N)C12CCN(CC1)C2 [Example E12, α-(Methoxyimino)-α-(1-azabicyclo[2.2.1]hept-4-syl)acetonitrilehydrochloride salt] | 21 nM | 2000 nM
CON=C(Br)C12CCN(CC1)C2 [Example E13, 1-Azabicyclo[2.2.1]hept-4-yl-N-methoxycarboximidoyl bromide oxalate salt] | 170 nM | 10000 nM
CON=C(F)C12CCN(CC1)C2 [Example E14, 1-Azabicyclo[2.2.1]hept-4-yl-N-methoxycarboximidoyl fluoride oxalate salt] | 48 nM | 15500 nM
